Experimental findings from US7960383B2, “Pyridazin-3(2H)-one derivatives and their use as PDE4 inhibitors” (Laboratorios Almirall SA, priority 2004, dated 2011) are described below.

Sequence of PDE4 (Q07343 whole entry): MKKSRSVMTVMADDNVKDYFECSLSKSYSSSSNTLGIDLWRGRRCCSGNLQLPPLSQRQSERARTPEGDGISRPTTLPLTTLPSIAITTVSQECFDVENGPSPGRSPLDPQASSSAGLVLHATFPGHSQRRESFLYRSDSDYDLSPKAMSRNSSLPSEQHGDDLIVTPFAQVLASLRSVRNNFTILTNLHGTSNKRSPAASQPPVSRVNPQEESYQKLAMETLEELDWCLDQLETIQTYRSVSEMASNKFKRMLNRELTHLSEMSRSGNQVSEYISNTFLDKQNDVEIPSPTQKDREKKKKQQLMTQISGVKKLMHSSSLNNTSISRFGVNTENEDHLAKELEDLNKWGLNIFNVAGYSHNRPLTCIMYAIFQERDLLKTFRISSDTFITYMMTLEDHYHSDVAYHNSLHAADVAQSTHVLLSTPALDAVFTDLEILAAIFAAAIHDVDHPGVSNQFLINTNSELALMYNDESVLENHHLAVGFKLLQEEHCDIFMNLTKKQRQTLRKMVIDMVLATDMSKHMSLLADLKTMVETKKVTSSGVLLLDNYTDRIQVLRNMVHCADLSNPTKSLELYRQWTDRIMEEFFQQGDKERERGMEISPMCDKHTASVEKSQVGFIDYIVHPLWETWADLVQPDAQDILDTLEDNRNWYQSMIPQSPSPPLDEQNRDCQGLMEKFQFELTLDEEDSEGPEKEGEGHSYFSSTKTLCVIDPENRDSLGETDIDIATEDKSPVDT

The target in this assay is PDE4 (Homo sapiens, UniProt Q07343). The experiment in a line: PDE4 Assay Procedure ([3H]-cAMP SPA). The class given is biochemical. To be noted: read-out: HPDE4B or IC50 PDE4. As to the method:
Compounds to be tested were resuspended in DMSO at a stock concentration of 1 mM. The compounds were tested at different concentrations varying from 10 pM to 10 μM to calculate an IC50. These dilutions were done in 96-well plates. In some cases, plates containing diluted compounds were frozen before being assayed. In these cases, the plates were thawed at room temperature and stirred for 15 minutes.
Ten microliters of the diluted compounds were poured into a “low binding” assay plate. Eighty microliters of reaction mixture containing 50 mM Tris pH 7.5, 8.3 mM MgCl2, 1.7 mM EGTA, and 15 nM [3H]-cAMP were added to each well. The reaction was initiated by adding ten microliters of a solution containing PDE4. The plate was then incubated under stirring for 1 hour at room temperature. After incubation the reaction was stopped with 50 microlitres of SPA beads, and the reaction was allowed to incubate for another 20 minutes at room temperature before measuring radioactivity using standard instrumentation.
The reaction mixture was prepared by adding 90 ml of H2O to 10 ml of 10× assay buffer (500 mM Tris pH 7.5, 83 mM MgCl2, 17 mM EGTA), and 40 microlitres 1 μCi/μL [3H]-cAMP. SPA beads solution was prepared by adding 500 mg to […] H2O for a final concentration of 20 mg/ml beads and 18 mM zinc sulphate.
As a reminder, the IC50 is the concentration at which inhibition is half-maximal. Consider `CCn1nc(C(=O)OCc2ccccc2)c(C(C)=O)c(Nc2cncc3ccccc23)c1=O` [Example 33, Benzyl 4-acetyl-1-ethyl-5-(isoquinolin-4-ylamino)-6-oxo-1,6-dihydropyridazine-3-carboxylate], for which the IC50 was 1.9 nM.
As to `CCn1nc(C(=O)OCc2cccc(Cl)c2)c(C(C)=O)c(Nc2cncc3ccccc23)c1=O` [Example 69, 3-Chlorobenzyl 4-acetyl-1-ethyl-5-(isoquinolin-4-ylamino)-6-oxo-1,6-dihydropyridazine-3-carboxylate], the IC50 stood at 0.49 nM.
Then `CCn1nc(C(=O)OCc2ccc(Br)cc2)cc(Nc2cncc3ccccc23)c1=O` [Example 51, 4-Bromobenzyl 1-ethyl-5-(isoquinolin-4-ylamino)-6-oxo-1,6-dihydropyridazine-3-carboxylate], with 0.48 nM.
For the compound `CCn1nc(C(=O)OCc2cccc(Cl)c2)cc(Nc2cncc3ccccc23)c1=O` [Example 13, 3-Chlorobenzyl 1-ethyl-5-(isoquinolin-4-ylamino)-6-oxo-1,6-dihydropyridazine-3-carboxylate], the IC50 amounted to 2.9 nM.
For the compound `CCn1nc(C(=O)OC(C)Cc2ccccc2)c(C(C)=O)c(Nc2cncc3ccccc23)c1=O` (stereo not drawn) [Example 38, 1-Methyl-2-phenylethyl 4-acetyl-1-ethyl-5-(isoquinolin-4-ylamino)-6-oxo-1,6-dihydropyridazine-3-carboxylate], the IC50 was 13 nM.
As for `CCn1nc(C(=O)OCc2ccsc2)cc(Nc2cnccc2C)c1=O` [Example 10, Thiophen-3-ylmethyl 1-ethyl-5-(4-methylpyridin-3-ylamino)-6-oxo-1,6-dihydropyridazine-3-carboxylate], the IC50 was found to be 19 nM.
Turning to `CCn1nc(C(=O)OCc2ccccc2)cc(Nc2cnccc2C)c1=O` [Example 1, Benzyl 1-ethyl-5-(4-methylpyridin-3-ylamino)-6-oxo-1,6-dihydropyridazine-3-carboxylate], the IC50 came to 52 nM.
As for `CCn1nc(C(=O)OCCOc2ccccc2)cc(Nc2cncc3ccccc23)c1=O` [Example 49, 2-Phenoxyethyl 1-ethyl-5-(isoquinolin-4-ylamino)-6-oxo-1,6-dihydropyridazine-3-carboxylate], the IC50 is 0.73 nM.
Then `CCn1nc(C(=O)OCOC(=O)C(C)(C)CC)cc(Nc2cncc3ccccc23)c1=O` [Example 66, 2,2-Dimethylbutyryloxymethyl 1-ethyl-5-(isoquinolin-4-ylamino)-6-oxo-1,6-dihydropyridazine-3-carboxylate], with 0.36 nM; and `CCn1nc(C(=O)OC(C)C)c(C(C)=O)c(Nc2cncc3ccccc23)c1=O` [Example 27, Isopropyl 4-acetyl-1-ethyl-5-(isoquinolin-4-ylamino)-6-oxo-1,6-dihydropyridazine-3-carboxylate], with 16 nM; and `CCn1nc(C(=O)OC(C)c2ccccc2)cc(Nc2cncc3ccccc23)c1=O` (stereo not drawn) [Example 14, 1-Phenylethyl 1-ethyl-5-(isoquinolin-4-ylamino)-6-oxo-1,6-dihydropyridazine-3-carboxylate], with 2.4 nM.
For `CCn1nc(C(=O)OC2CCC2)c(C(C)=O)c(Nc2cncc3ccccc23)c1=O` [Example 36, Cyclobutyl 4-acetyl-1-ethyl-5-(isoquinolin-4-ylamino)-6-oxo-1,6-dihydropyridazine-3-carboxylate] the value was 44 nM; for `CCCCCCCCOC(=O)c1nn(CC)c(=O)c(Nc2cncc3ccccc23)c1C(C)=O` [Example 71, Octyl 4-acetyl-1-ethyl-5-(isoquinolin-4-ylamino)-6-oxo-1,6-dihydropyridazine-3-carboxylate], 5 nM.
In the case of `CCn1nc(C(=O)OCc2cccc(OC)c2)cc(Nc2cncc3ccccc23)c1=O` [Example 11, 3-Methoxybenzyl 1-ethyl-5-(isoquinolin-4-ylamino)-6-oxo-1,6-dihydropyridazine-3-carboxylate], the IC50 stood at 1.6 nM.
`CCn1nc(C(=O)OCc2ccccc2)c(C(C)=O)c(Nc2cccnc2)c1=O` [Example 26, Benzyl 4-acetyl-1-ethyl-6-oxo-5-(pyridin-3-ylamino)-1,6-dihydropyridazine-3-carboxylate]: the IC50 is 5.1 nM.
Take `CCn1nc(C(=O)OC(C)c2ccccc2)c(C(C)=O)c(Nc2cncc3ccccc23)c1=O` (stereo not drawn) [Example 39, 1-Phenylethyl 4-acetyl-1-ethyl-5-(isoquinolin-4-ylamino)-6-oxo-1,6-dihydropyridazine-3-carboxylate]: the concentration for half-maximal inhibition (IC50) was 1.5 nM.
For `CCn1nc(C(=O)OC(C)c2ccccc2)c(C(C)=O)c(Nc2cnccc2C)c1=O` (stereo not drawn) [Example 41, 1-Phenylethyl 4-acetyl-1-ethyl-5-[(4-methylpyridin-3-yl)amino]-6-oxo-1,6-dihydropyridazine-3-carboxylate] the value was 69 nM; for `CCOC(=O)c1nn(CC)c(=O)c(Nc2cncc3ccccc23)c1C(C)=O` [Example 23, Ethyl 4-acetyl-1-ethyl-5-(isoquinolin-4-ylamino)-6-oxo-1,6-dihydropyridazine-3-carboxylate], 14 nM.
